From ChEMBL document CHEMBL1201862, “PubChem BioAssay data set” (2004)
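Tested at 5 concentrations; 48 h exposure; 96-well plates; endpoints linearly interpolated, else capped at highest concentration. GI50 marks 50% less growth.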 Active and inactive are the calls of the source. Cut-off read from the data, not from the text of the source: active = GI50 up to about 1.1 µM and inactive = higher.

Experiments:
Test in all cases: NCI-60 cell line screen, 48 h
Malme-3M = system: Malme-3M
SF-295 = system: SF-295
SK-MEL-5 = system: SK-MEL-5
TK-10 = system: TK-10
T47D = system: T47D
BT-549 = system: BT-549
SR = system: SR
KM12 = system: KM12
HCC 2998 = system: HCC 2998
SN12C = system: SN12C
DU-145 = system: DU-145
K562 = system: K562
IGROV-1 = system: IGROV-1
NCI-H460 = system: NCI-H460
UACC-257 = system: UACC-257
OVCAR-5 = system: OVCAR-5
MDA-MB-435 = system: MDA-MB-435
SW-620 = system: SW-620
HOP-92 = system: HOP-92
CCRF-CEM = system: CCRF-CEM

Measured: GI50

CC[C@@]1(C[C@H]2C[C@@]3(C(=O)OC)c4[nH]c5ccccc5c4CCN3C2=O)COC2(CCCCC2)O1
inactive: Malme-3M 55.3 µM | SF-295 33.4 µM | SK-MEL-5 13.5 µM | TK-10 32.8 µM | T47D 29.3 µM | BT-549 47.9 µM | SR 31.3 µM | KM12 19.9 µM | HCC 2998 21.2 µM | SN12C 45.7 µM | DU-145 41.8 µM | K562 23.6 µM | IGROV-1 43.9 µM | NCI-H460 24.3 µM | UACC-257 20 µM | OVCAR-5 55.8 µM

C=C1CCCCCCCCCCC12SCCC2CCCCSC (stereo not drawn)
inactive: Malme-3M 19.7 µM | SF-295 19.9 µM | SK-MEL-5 17.3 µM | MDA-MB-435 26.1 µM | T47D 17.9 µM | SR 33.1 µM | HCC 2998 21.4 µM | SN12C 24.3 µM | DU-145 40.6 µM | K562 22.9 µM | SW-620 20.3 µM | IGROV-1 22.5 µM | NCI-H460 34.5 µM | UACC-257 26.1 µM | OVCAR-5 20 µM | HOP-92 28.1 µM

CCOC(=O)CCCc1cc(O)c2c(C)c3[nH]c4ccc(Cl)cc4c3c(C)c2n1
inactive: CCRF-CEM 42.5 µM | Malme-3M 24 µM | SF-295 28.8 µM | SK-MEL-5 19.8 µM | MDA-MB-435 18.5 µM | TK-10 21.1 µM | BT-549 19 µM | SR 44.4 µM | KM12 37.2 µM | HCC 2998 44.4 µM | SN12C 27.3 µM | DU-145 23.8 µM | K562 26.1 µM | SW-620 32.2 µM | IGROV-1 30.2 µM | NCI-H460 16.5 µM | UACC-257 43.2 µM | OVCAR-5 82.6 µM | HOP-92 22 µM

COc1ccc(O[C@H](COCc2ccccc2)C[C@@H]2COC(C)(C)O2)cc1
inactive: CCRF-CEM > 100 µM | Malme-3M > 100 µM | SF-295 > 100 µM | SK-MEL-5 > 100 µM | MDA-MB-435 > 100 µM | TK-10 > 100 µM | BT-549 > 100 µM | SR > 100 µM | KM12 > 100 µM | HCC 2998 > 100 µM | SN12C > 100 µM | DU-145 > 100 µM | K562 > 100 µM | SW-620 > 100 µM | IGROV-1 > 100 µM | NCI-H460 > 100 µM | UACC-257 > 100 µM | OVCAR-5 > 100 µM

CS(=O)(=O)Sc1ccc(Cl)cc1
inactive: CCRF-CEM 2.54 µM | Malme-3M 11.6 µM | SF-295 3.04 µM | SK-MEL-5 7.83 µM | TK-10 14 µM | SR 3.59 µM | KM12 7.19 µM | HCC 2998 11.2 µM | SN12C 3.69 µM | K562 10.2 µM | SW-620 12.7 µM | IGROV-1 2.85 µM | NCI-H460 10.9 µM | UACC-257 8.53 µM | OVCAR-5 17.6 µM | HOP-92 7.11 µM

CCOC(=O)c1ccc(N2C(=S)N(C(=O)c3ccccc3)C(=N/c3ccccc3)/C2=N\c2ccccc2)cc1
inactive: Malme-3M 53.5 µM | SF-295 65.9 µM | SK-MEL-5 50 µM | MDA-MB-435 51.5 µM | TK-10 62.1 µM | BT-549 30.5 µM | SR > 100 µM | KM12 > 100 µM | HCC 2998 > 100 µM | SN12C > 100 µM | DU-145 92.9 µM | K562 > 100 µM | SW-620 > 100 µM | IGROV-1 49.5 µM | NCI-H460 > 100 µM | UACC-257 > 100 µM | OVCAR-5 > 100 µM | HOP-92 26.4 µM

N#Cc1nc(/C=C/c2cccnc2)oc1N
inactive: CCRF-CEM > 100 µM | Malme-3M > 100 µM | SF-295 > 100 µM | SK-MEL-5 > 100 µM | MDA-MB-435 > 100 µM | TK-10 > 100 µM | T47D > 100 µM | SR > 100 µM | KM12 > 100 µM | HCC 2998 > 100 µM | SN12C > 100 µM | DU-145 > 100 µM | K562 > 100 µM | SW-620 > 100 µM | IGROV-1 > 100 µM | NCI-H460 > 100 µM | UACC-257 > 100 µM | OVCAR-5 > 100 µM | HOP-92 > 100 µM

CN(C)c1nc(Oc2nc(N(C)C)nc(N(C)C)n2)nc(N(C)C)n1
inactive: CCRF-CEM > 100 µM | Malme-3M > 100 µM | SF-295 > 100 µM | SK-MEL-5 > 100 µM | TK-10 > 100 µM | SR > 100 µM | KM12 62.5 µM | HCC 2998 88.7 µM | SN12C > 100 µM | K562 59.2 µM | SW-620 > 100 µM | IGROV-1 > 100 µM | NCI-H460 > 100 µM | UACC-257 56.5 µM | OVCAR-5 > 100 µM | HOP-92 > 100 µM

O=c1c2cc(S(=O)(=O)Nc3c(Cl)cccc3Cl)ccc2ncn1NS(=O)(=O)c1ccc2ccccc2c1
inactive: CCRF-CEM 17.1 µM | Malme-3M > 62.5 µM | SF-295 23 µM | MDA-MB-435 > 62.5 µM | TK-10 > 62.5 µM | BT-549 22.3 µM | SR 40.9 µM | KM12 15.2 µM | HCC 2998 24.4 µM | SN12C > 62.5 µM | DU-145 42.9 µM | K562 16.6 µM | SW-620 > 62.5 µM | IGROV-1 8.67 µM | NCI-H460 42.2 µM | UACC-257 > 62.5 µM | OVCAR-5 12.6 µM | HOP-92 19.6 µM

n1onc2c1NC1Nc3nonc3NC1N2 (stereo not drawn)
inactive: CCRF-CEM > 100 µM | SF-295 > 100 µM | SK-MEL-5 > 100 µM | MDA-MB-435 > 100 µM | TK-10 > 100 µM | T47D > 100 µM | KM12 > 100 µM | HCC 2998 > 100 µM | SN12C > 100 µM | DU-145 > 100 µM | K562 > 100 µM | SW-620 > 100 µM | IGROV-1 > 100 µM | NCI-H460 > 100 µM | OVCAR-5 > 100 µM | HOP-92 > 100 µM

O=C(Nc1ccccc1)O/N=C(/CBr)c1ccccc1
inactive: CCRF-CEM 3.52 µM | Malme-3M 13 µM | SF-295 26 µM | SK-MEL-5 11.9 µM | MDA-MB-435 4.84 µM | TK-10 18.1 µM | T47D 11.5 µM | SR 3.94 µM | KM12 17.9 µM | HCC 2998 18.5 µM | SN12C 8.22 µM | DU-145 19.3 µM | K562 4.12 µM | SW-620 5.35 µM | IGROV-1 14.6 µM | NCI-H460 19 µM | UACC-257 17.8 µM | OVCAR-5 18.1 µM | HOP-92 16.1 µM

CC(=O)O/C=C1/C[C@H]2[C@@H]3CCC4CC(C(C)=O)CC[C@]4(C)[C@H]3CC[C@]2(C)C1=O (stereo partly drawn)
inactive: CCRF-CEM 29.1 µM | Malme-3M > 100 µM | SF-295 49.1 µM | SK-MEL-5 47.2 µM | MDA-MB-435 > 100 µM | TK-10 > 100 µM | BT-549 > 100 µM | SR 44.1 µM | KM12 33.7 µM | HCC 2998 > 100 µM | SN12C > 100 µM | DU-145 > 100 µM | K562 36.4 µM | SW-620 > 100 µM | IGROV-1 88.9 µM | NCI-H460 > 100 µM | UACC-257 > 100 µM | OVCAR-5 > 100 µM | HOP-92 41 µM

COCN/C(N)=N/C#N
inactive: CCRF-CEM > 100 µM | Malme-3M > 100 µM | SF-295 > 100 µM | SK-MEL-5 > 100 µM | TK-10 > 100 µM | SR 15.1 µM | KM12 > 100 µM | HCC 2998 > 100 µM | SN12C > 100 µM | K562 > 100 µM | SW-620 15.7 µM | IGROV-1 > 100 µM | NCI-H460 > 100 µM | UACC-257 > 100 µM | OVCAR-5 > 100 µM | HOP-92 > 100 µM

O=C1NC2OCC(O)C(O)C2O1 (stereo not drawn)
inactive: CCRF-CEM > 100 µM | Malme-3M > 100 µM | SF-295 > 100 µM | SK-MEL-5 > 100 µM | TK-10 > 100 µM | SR > 100 µM | KM12 > 100 µM | HCC 2998 > 100 µM | SN12C > 100 µM | K562 > 100 µM | SW-620 > 100 µM | IGROV-1 > 100 µM | NCI-H460 > 100 µM | UACC-257 > 100 µM | OVCAR-5 > 100 µM | HOP-92 > 100 µM

COc1ccc(/C=C/c2sc3ccccc3[n+]2CCCCI)cc1OC
inactive: CCRF-CEM 3.49 µM | Malme-3M 3.01 µM | SF-295 > 10 µM | SK-MEL-5 5.55 µM | MDA-MB-435 4.57 µM | TK-10 > 10 µM | BT-549 > 10 µM | KM12 6.25 µM | HCC 2998 > 10 µM | SN12C > 10 µM | DU-145 > 10 µM | K562 3.25 µM | SW-620 7.01 µM | IGROV-1 > 10 µM | NCI-H460 > 10 µM | UACC-257 5.33 µM | OVCAR-5 > 10 µM | HOP-92 9.53 µM

O=C(O)c1ccccc1C(=O)NCC1S(=O)(=O)OCCOS1(=O)=O
inactive: CCRF-CEM > 100 µM | Malme-3M > 100 µM | SF-295 > 100 µM | SK-MEL-5 > 100 µM | MDA-MB-435 > 100 µM | TK-10 > 100 µM | T47D > 100 µM | SR > 100 µM | HCC 2998 > 100 µM | SN12C > 100 µM | DU-145 > 100 µM | K562 > 100 µM | SW-620 > 100 µM | IGROV-1 > 100 µM | NCI-H460 > 100 µM | UACC-257 > 100 µM | OVCAR-5 > 100 µM | HOP-92 > 100 µM
